Experimental data taken from patent publication US20250340552A1, “COMPOUNDS, COMPOSITIONS AND METHODS OF TREATING DISORDERS” (HOTSPOT THERAPEUTICS, INC., priority 2022, published 2025).
Like-named read-outs stand apart in the source and are kept apart here.

Biological target: T1, Cbl-B (Homo sapiens, UniProt Q13191)
T1 construct: MSD-Based Assay for Degradation of Cbl-B in THP-1 Cells; endogenous in cells; host or cells: THP-1 (title) / Jurkat (protocol text)
Assay: MSD-based assay for degradation of Cbl-B in THP-1 cells
Type: cell-based
Outline: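 Reported Dmax bins are A >70%, B 50–70%, C 30–50% and D <30%, from an electrochemiluminescence (MSD) sandwich assay of Cbl-B in cell lysates. THP-1 cells were exposed to compounds for 24 hours before lysis.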

[1] = Cbl-B degradation, Jurkat cells seeded (heading: THP-1 cells), 24 hours incubation, MSD readout
[2] = Cbl-B degradation, Jurkat cells seeded (heading: THP-1 cells), 24 hours incubation, MSD readout, read-out: Dmax

T1 sequence (Q13191 whole entry): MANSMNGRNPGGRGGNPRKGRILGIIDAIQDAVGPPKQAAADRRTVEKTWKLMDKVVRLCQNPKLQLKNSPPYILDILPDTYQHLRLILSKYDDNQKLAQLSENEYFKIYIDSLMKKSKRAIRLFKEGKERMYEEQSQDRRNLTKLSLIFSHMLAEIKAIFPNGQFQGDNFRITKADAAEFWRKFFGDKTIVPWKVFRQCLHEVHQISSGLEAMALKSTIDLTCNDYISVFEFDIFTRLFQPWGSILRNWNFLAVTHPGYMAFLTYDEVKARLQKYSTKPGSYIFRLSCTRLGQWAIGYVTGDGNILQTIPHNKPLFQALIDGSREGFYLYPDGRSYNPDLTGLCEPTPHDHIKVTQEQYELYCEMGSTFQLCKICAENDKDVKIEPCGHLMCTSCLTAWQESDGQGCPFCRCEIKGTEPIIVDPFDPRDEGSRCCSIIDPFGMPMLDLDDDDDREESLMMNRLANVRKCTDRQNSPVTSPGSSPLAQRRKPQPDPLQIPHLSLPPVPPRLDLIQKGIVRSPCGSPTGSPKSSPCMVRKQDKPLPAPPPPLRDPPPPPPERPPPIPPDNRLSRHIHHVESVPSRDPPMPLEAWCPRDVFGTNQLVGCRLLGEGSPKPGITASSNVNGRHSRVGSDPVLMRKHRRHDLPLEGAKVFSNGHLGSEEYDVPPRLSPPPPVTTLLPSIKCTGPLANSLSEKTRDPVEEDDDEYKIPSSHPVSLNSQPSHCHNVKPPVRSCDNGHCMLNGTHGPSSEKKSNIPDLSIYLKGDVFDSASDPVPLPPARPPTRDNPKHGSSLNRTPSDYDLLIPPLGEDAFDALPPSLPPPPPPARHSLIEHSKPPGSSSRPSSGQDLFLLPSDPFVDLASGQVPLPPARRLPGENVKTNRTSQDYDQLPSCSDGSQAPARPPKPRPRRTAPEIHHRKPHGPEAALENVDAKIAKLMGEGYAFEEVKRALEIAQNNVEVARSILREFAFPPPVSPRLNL

SMILES: Cn1cnnc1[C@@H](c1cccc(-n2cc3c(C(F)(F)F)cc(CN4CCC[C@@H](OCc5ccc(CN6CCN(c7ccc8c(c7)CN(C7CCC(=O)NC7=O)C8=O)CC6)cc5)C4)cn3c2=O)c1)C1CCC1 (stereo partly shown) [Compound 95]
- DC50 [1]: 30 to 300 nM

SMILES: Cn1cnnc1[C@@H](c1cccc(-n2cc3c(C(F)(F)F)cc(CN4CCN(c5ccc(C(=O)N6CCC(C7CCN(c8ccc9c(c8)CN([C@H]8CCC(=O)NC8=O)C9=O)CC7)CC6)cc5)CC4)cn3c2=O)c1)C1CCC1 (single isomer, unassigned) [Compound 210]
- DC50 [1]: < 30 nM
- Dmax [2]: > 70%

SMILES: Cn1cnnc1CC1(c2cccc(-n3cc4c(C(F)(F)F)cc(CNCCOCCNc5cccc6c5C(=O)N(C5CCC(=O)NC5=O)C6=O)cn4c3=O)c2)COC1 (stereo not shown) [Compound 2]
- DC50 [1]: > 10000 nM
- Dmax [2]: < 30%

SMILES: Cn1cnnc1[C@@H](c1cccc(-n2cc3c(C(F)(F)F)cc(CN4CCC(CCN5CCC(CN6CCN(c7ccc8c(c7)CN([C@@H]7CCC(=O)NC7=O)C8=O)CC6)CC5)CC4)cn3c2=O)c1)C1CCC1 (single isomer, unassigned) [Compound 109]
- DC50 [1]: 30 to 300 nM

SMILES: Cn1cnnc1[C@@H](c1cccc(-n2cc3c(C(F)(F)F)cc(CN4CCC(OCCOCc5ccc(CN6CCN(c7ccc8c(c7)CN([C@H]7CCC(=O)NC7=O)C8=O)CC6)cc5)CC4)cn3c2=O)c1)C1CCC1 (single isomer, unassigned) [Compound 88]
- DC50 [1]: < 30 nM
- Dmax [2]: > 70%

SMILES: Cn1cnnc1CC1(c2cccc(N3Cc4c(cc(CN5CCC(OCCOCc6ccc(COCCNc7cccc8c7C(=O)N(C7CCC(=O)NC7=O)C8=O)cc6)CC5)cc4C(F)(F)F)C3=O)c2)COC1 (stereo not shown) [Compound 21]
- DC50 [1]: 1000 to 10000 nM
- Dmax [2]: 30 to 50%

SMILES: Cn1cnnc1[C@@H](c1cccc(-n2cc3c(C(F)(F)F)cc(CN4CCC(OCCCN5CCN(c6ccc7c(c6)CN([C@@H]6CCC(=O)NC6=O)C7=O)CC5)CC4)cn3c2=O)c1)C1CCC1 (single isomer, unassigned) [Compound 71]
- DC50 [1]: > 10000 nM
- Dmax [2]: < 30%

SMILES: Cn1cnnc1[C@@H](c1cccc(-n2cc3c(C(F)(F)F)cc(CN4CCC(CC(=O)N5CCC(c6ccc(-c7ccc8c(c7)CN([C@@H]7CCC(=O)NC7=O)C8=O)cc6)CC5)CC4)cn3c2=O)c1)C1CCC1 [Compound 181]
- DC50 [1]: 300 to 1000 nM
- Dmax (THP-1): 30 to 50%

SMILES: CN(CCN(C)C(=O)c1ccc(N2CCN(c3ccc4c(c3)CN([C@@H]3CCC(=O)NC3=O)C4=O)CC2)cc1)Cc1cc(C(F)(F)F)c2cn(-c3cccc([C@H](c4nncn4C)C4CCC4)c3)c(=O)n2c1 (single isomer, unassigned) [Compound 139]
- DC50 [1]: 300 to 1000 nM

SMILES: CN(CCOC1CCN(Cc2cc(C(F)(F)F)c3cn(-c4cccc([C@H](c5nncn5C)C5CCC5)c4)c(=O)n3c2)CC1)C(=O)c1ccc(C2CCN(c3ccc4c(c3)CN([C@H]3CCC(=O)NC3=O)C4=O)CC2)cc1 (single isomer, unassigned) [Compound 108]
- DC50 [1]: < 30 nM
- Dmax [2]: 50 to 70%

SMILES: CO[C@H]1C[C@](c2cccc(-n3cc4c(C(F)(F)F)cc(CN5CCC(OCCOCc6ccc(CN7CCN(c8ccc9c(c8)CN([C@H]8CCC(=O)NC8=O)C9=O)CC7)cc6)CC5)cn4c3=O)c2)(c2nncn2C)C1 [Compound 222]
- DC50 [1]: < 30 nM
- Dmax [2]: > 70%

SMILES: CN(CCO[C@@H]1CCCN(Cc2cc(C(F)(F)F)c3cn(-c4cccc([C@H](c5nncn5C)C5CCC5)c4)c(=O)n3c2)C1)C(=O)c1ccc(N2CCN(c3ccc4c(c3)CN([C@@H]3CCC(=O)NC3=O)C4=O)CC2)cc1 (single isomer, unassigned) [Compound 103]
- DC50 [1]: 300 to 1000 nM

SMILES: Cn1cnnc1[C@@H](c1cccc(-n2cc3c(C(F)(F)F)cc(CN4CCC(OCCNc5cccc6c5C(=O)N(C5CCC(=O)NC5=O)C6=O)CC4)cn3c2=O)c1)C1CCC1 (stereo partly shown) [Compound 37]
- DC50 [1]: 1000 to 10000 nM
- Dmax [2]: < 30%

SMILES: Cn1cnnc1[C@@H](c1cccc(-n2cc3c(C(F)(F)F)cc(CN4CCC[C@@H](OCc5ccc(CC6CCN(c7ccc8c(c7)CN([C@H]7CCC(=O)NC7=O)C8=O)CC6)cc5)C4)cn3c2=O)c1)C1CCC1 (single isomer, unassigned) [Compound 192]
- DC50 [1]: 1000 to 10000 nM

SMILES: Cn1cnnc1CC1(c2cccc(-n3cc4c(C(F)(F)F)cc(CN5CCC[C@H](OCCN6CCC(CN7CCN(c8ccc9c(c8)CN([C@H]8CCC(=O)NC8=O)C9=O)CC7)CC6)C5)cn4c3=O)c2)COC1 (single isomer, unassigned) [Compound 52]
- DC50 [1]: 30 to 300 nM
- Dmax [2]: > 70%

SMILES: Cn1cnnc1CC1(c2cccc(-n3cc4c(C(F)(F)F)cc(CN5CCC(OCCOCc6ccc(CN7CCN(c8ccc9c(c8)CN([C@H]8CCC(=O)NC8=O)C9=O)CC7)cc6)CC5)cn4c3=O)c2)COC1 (single isomer, unassigned) [Compound 220]
- DC50 [1]: < 30 nM
- Dmax [2]: > 70%

SMILES: Cn1cnnc1[C@@H](c1cccc(-n2cc3c(C(F)(F)F)cc(CN4CCC(N5CCN(c6ccc7c(c6)CN([C@H]6CCC(=O)NC6=O)C7=O)CC5)CC4)cn3c2=O)c1)C1CCC1 (single isomer, unassigned) [Compound 41]
- DC50 [1]: 1000 to 10000 nM
- Dmax [2]: < 30%

SMILES: CO[C@H]1C[C@](c2cccc(-n3cc4c(C(F)(F)F)cc(CN5CCC(OCCN6CCC(CN7CCN(c8ccc9c(c8)CN([C@H]8CCC(=O)NC8=O)C9=O)CC7)CC6)CC5)cn4c3=O)c2)(c2nncn2C)C1 [Compound 70]
- DC50 [1]: 30 to 300 nM
- Dmax [2]: 50 to 70%

SMILES: Cn1cnnc1[C@@H](c1cccc(-n2cc3c(C(F)(F)F)cc(CN4CCC(OCCN5CCC(CN6CCN(c7cc8c(cc7F)C(=O)N(C7CCC(=O)NC7=O)C8=O)CC6)CC5)CC4)cn3c2=O)c1)C1CCC1 (stereo partly shown) [Compound 16]
- DC50 [1]: 1000 to 10000 nM
- Dmax [2]: 30 to 50%

SMILES: Cn1cnnc1CC1(c2cccc(-n3cc4c(C(F)(F)F)cc(CN5CCC[C@H](OCCN6CCC(CN7CCN(c8ccc9c(c8)CN([C@@H]8CCC(=O)NC8=O)C9=O)CC7)CC6)C5)cn4c3=O)c2)COC1 (single isomer, unassigned) [Compound 51]
- DC50 [1]: 300 to 1000 nM
- Dmax [2]: 50 to 70%

SMILES: Cn1cnnc1[C@@H](c1cccc(-n2cc3c(C(F)(F)F)cc(CN4CCC(OCc5ccc(CN6CCN(c7ccc8c(c7)CN([C@H]7CCC(=O)NC7=O)C8=O)CC6)cc5)CC4)cn3c2=O)c1)C1CCC1 (single isomer, unassigned) [Compound 92]
- DC50 [1]: < 30 nM
- Dmax [2]: > 70%

SMILES: Cn1cnnc1[C@@H](c1cccc(-n2cc3c(C(F)(F)F)cc(CN4CCC(OCc5ccc(C(=O)N6CCN(c7ccc8c(c7)CN([C@H]7CCC(=O)NC7=O)C8=O)CC6)cc5)CC4)cn3c2=O)c1)C1CCC1 (single isomer, unassigned) [Compound 158]
- DC50 [1]: < 30 nM
- Dmax [2]: > 70%

SMILES: CN(CCN(C)C(=O)c1ccc(C2CCN(c3ccc4c(c3)CN([C@H]3CCC(=O)NC3=O)C4=O)CC2)cc1)Cc1cc(C(F)(F)F)c2cn(-c3cccc([C@H](c4nncn4C)C4CCC4)c3)c(=O)n2c1 (single isomer, unassigned) [Compound 212]
- DC50 [1]: > 10000 nM
- Dmax [2]: < 30%

SMILES: CN(CCOC1CCN(Cc2cc(C(F)(F)F)c3cn(-c4cccc([C@H](c5nncn5C)C5CCC5)c4)c(=O)n3c2)CC1)C(=O)c1ccc(N2CCN(c3ccc4c(c3)CN([C@@H]3CCC(=O)NC3=O)C4=O)CC2)cc1 [Compound 35]
- DC50 [1]: 300 to 1000 nM
- Dmax [2]: 50 to 70%

SMILES: Cn1cnnc1[C@@H](c1cccc(-n2cc3c(C(F)(F)F)cc(CN4CCC[C@H](OCCN5CCC(CN6CCN(c7ccc8c(c7)CN([C@H]7CCC(=O)NC7=O)C8=O)CC6)CC5)C4)cn3c2=O)c1)C1CCC1 [Compound 56]
- DC50 [1]: 30 to 300 nM
- Dmax [2]: > 70%

SMILES: CN(CCC1CCN(Cc2cc(C(F)(F)F)c3cn(-c4cccc([C@H](c5nncn5C)C5CCC5)c4)c(=O)n3c2)CC1)C(=O)c1ccc(N2CCN(c3ccc4c(c3)CN([C@H]3CCC(=O)NC3=O)C4=O)CC2)cc1 (single isomer, unassigned) [Compound 186]
- DC50 [1]: < 30 nM
- Dmax [2]: > 70%

SMILES: Cn1cnnc1[C@@H](c1cccc(-n2cc3c(C(F)(F)F)cc(CN4CCC(CN5CCN(c6ccc7c(c6)CN([C@@H]6CCC(=O)NC6=O)C7=O)CC5)CC4)cn3c2=O)c1)C1CCC1 (single isomer, unassigned) [Compound 85]
- DC50 [1]: > 10000 nM
- Dmax [2]: 30 to 50%

SMILES: CN(CC1CCN(Cc2cc(C(F)(F)F)c3cn(-c4cccc([C@H](c5nncn5C)C5CCC5)c4)c(=O)n3c2)CC1)C(=O)c1ccc(C2CCN(c3ccc4c(c3)CN([C@@H]3CCC(=O)NC3=O)C4=O)CC2)cc1 (single isomer, unassigned) [Compound 199]
- DC50 [1]: 30 to 300 nM
- Dmax [2]: 30 to 50%

SMILES: CO[C@H]1C[C@](c2cccc(-n3cc4c(C(F)(F)F)cc(CN5CCC(OCc6ccc(CN7CCN(c8ccc9c(c8)CN([C@H]8CCC(=O)NC8=O)C9=O)CC7)cc6)CC5)cn4c3=O)c2)(c2nncn2C)C1 (single isomer, unassigned) [Compound 232]
- DC50 [1]: < 30 nM
- Dmax [2]: > 70%

SMILES: Cn1cnnc1CC1(c2cccc(-n3cc4c(C(F)(F)F)cc(CN5CCC(C6CCN(C(=O)c7ccc(N8CCN(c9ccc%10c(c9)CN([C@@H]9CCC(=O)NC9=O)C%10=O)CC8)cc7)CC6)CC5)cn4c3=O)c2)COC1 [Compound 261]
- DC50 [1]: < 30 nM
- Dmax (THP-1): > 70%

SMILES: Cn1cnnc1[C@@H](c1cccc(-n2cc3c(C(F)(F)F)cc(CN4CCC(CN5CCC(CN6CCN(c7ccc8c(c7)CN(C7CCC(=O)NC7=O)C8=O)CC6)CC5)CC4)cn3c2=O)c1)C1CCC1 (stereo partly shown) [Compound 38]
- DC50 [1]: 1000 to 10000 nM
- Dmax [2]: 50 to 70%

SMILES: Cn1cnnc1[C@@H](c1cccc(-n2cc3c(C(F)(F)F)cc(CN4CCC(OCCOCc5ccc(CN6CCN(c7cc8c(cc7F)C(=O)N(C7CCC(=O)NC7=O)C8=O)CC6)cc5)CC4)cn3c2=O)c1)C1CCC1 (stereo partly shown) [Compound 23]
- DC50 [1]: > 10000 nM
- Dmax [2]: < 30%

SMILES: CO[C@H]1C[C@](c2cccc(-n3cc4c(C(F)(F)F)cc(CN5CCN(CCc6ccc(N7CCN(c8ccc9c(c8)CN([C@H]8CCC(=O)NC8=O)C9=O)CC7)cc6)CC5)cn4c3=O)c2)(c2nncn2C)C1 [Compound 252]
- DC50 [1]: < 30 nM
- Dmax [2]: > 70%
